Test results reported in patent US7973159B2, “Non-basic melanin concentrating hormone receptor-1 antagonists” (Bristol-Myers Squibb Company, priority 2007, dated 2011).

Molecular target: T1, mutated (E4Q, A5T) hMCHR1 receptor (Homo sapiens, UniProt Q99705, A5T/E4Q)
T1 construct: expressed in transfected cells
Assay: Radioligand binding assay for assessment of MCHR1 activity
Details: membranes from stably transfected HEK-293 cells; competition with [Phe13,[125I]Tyr19]-MCH, 90 min
Description: Radioligand Binding Assay for Assessment of MCHR1 Activity
Membranes from stably transfected HEK-293 cells expressing a mutated (E4Q, A5T) hMCHR1 receptor were prepared by dounce homogenization and differential centrifugation. Binding experiments were carried out with 0.5-1.0 ug of membrane protein incubated in a total of 0.2 ml in 25 mM HEPES (pH 7.4) with 10 mM MgCl2, 2 mM EGTA, and 0.1% BSA (Binding Buffer) for 90 min. For competition binding assays, reactions were carried out in the presence of with 0.06-0.1 nM [Phe^13, [^125I]Tyr^19]-MCH and increasing concentrations of unlabeled test molecules. Reactions were terminated by rapid vacuum filtration over 96 well-GFC UNIFILTER® plates pre-coated with 0.075 ml binding buffer containing 1% BSA, and washed 3 times with 0.4 ml of Phospho-buffered Saline (pH 7.4) containing 0.01% TX-100. Filters were dried, 0.05 ml microscint 20 was added to each well and radioactivity was subsequently quantified by scintillation counting on a TOPCOUNT® microplate scintillation counter (Packard). Inhibitory constants were determined by nonlinear least squares analysis using a four parameter logistic equation.

T1 sequence (Q99705 whole entry E4Q/A5T): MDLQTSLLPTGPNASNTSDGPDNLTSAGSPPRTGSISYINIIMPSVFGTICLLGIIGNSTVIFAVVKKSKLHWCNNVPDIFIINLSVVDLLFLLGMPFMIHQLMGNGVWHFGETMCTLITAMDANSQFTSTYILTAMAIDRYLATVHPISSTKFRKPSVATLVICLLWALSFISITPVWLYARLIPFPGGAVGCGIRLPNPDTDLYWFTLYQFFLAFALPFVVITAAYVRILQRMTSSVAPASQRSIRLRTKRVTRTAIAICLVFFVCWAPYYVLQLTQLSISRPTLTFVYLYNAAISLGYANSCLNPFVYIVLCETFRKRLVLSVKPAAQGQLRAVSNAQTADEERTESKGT

| SMILES | Ki [nM] |
| --- | --- |
| COc1cc(-n2nnc3cc(-c4ccc(Cl)cc4)sc3c2=O)ccc1OCC(C)(C)O [Example 1, 6-(4-Chlorophenyl)-3-(4-(2-hydroxy-2-methylpropoxy)-3-methoxyphenyl)-thieno[3,2-d][1,2,3]triazin-4(3H)-one] | 3 |
| COc1cc(-n2nnc3cc(-c4ccc(Cl)cc4)sc3c2=O)ccc1OCC(C)=O [Example 2, 6-(4-Chlorophenyl)-3-(3-methoxy-4-(2-oxopropoxy)phenyl)thieno[3,2-d][1,2,3]triazin-4(3H)-one] | 5 |
| COc1cc(-n2nnc3cc(-c4ccc(Cl)cc4)sc3c2=O)ccc1OCC(C)O (stereo not drawn) [Example 3, 6-(4-Chlorophenyl)-3-(4-(2-hydroxypropoxy)-3-methoxyphenyl)thieno[3,2-d][1,2,3]triazin-4(3H)-one] | 7 |
| COc1cc(-n2nnc3cc(-c4ccc(Cl)cc4)sc3c2=O)ccc1OCCO [Example 4, 6-(4-Chlorophenyl)-3-(4-(2-hydroxyethoxy)-3-methoxyphenyl)thieno[3,2-d][1,2,3]triazin-4(3H)-one] | 5 |
| COc1cc(-n2nnc3cc(-c4ccc(Cl)cc4)sc3c2=O)ccc1OC[C@@H](O)[C@@H](C)O [Example 7, 6-(4-Chlorophenyl)-3-(4-((2R,3R)-2,3-dihydroxybutoxy)-3-methoxyphenyl)thieno[3,2-d][1,2,3]triazin-4(3H)-one] | 5 |

Second part, the molecule after the results:

| Ki [nM] | SMILES |
| --- | --- |
| 10 | COc1cc(-n2nnc3cc(-c4ccc(Cl)cc4)sc3c2=O)ccc1OCC(O)C1CC1 (stereo not drawn) [Example 5, 6-(4-Chlorophenyl)-3-(4-(2-cyclopropyl-2-hydroxyethoxy)-3-methoxyphenyl)thieno[3,2-d][1,2,3]triazin-4(3H)-one] |
| 19 | COc1cc(-n2nnc3cc(-c4ccc(Cl)cc4)sc3c2=O)ccc1OC[C@H]1OC(C)(C)O[C@@H]1C [Example 6] |
| 8 | COc1cc(-n2nnc3cc(-c4ccc(Cl)cc4)sc3c2=O)ccc1OCC(O)C(F)(F)F (stereo not drawn) [Example 8, 6-(4-Chlorophenyl)-3-(3-methoxy-4-(3,3,3-trifluoro-2-hydroxypropoxy)phenyl)thieno[3,2-d][1,2,3]triazin-4(3H)-one] |
| 4 | COc1cc(-n2ncc3cc(-c4ccc(Cl)cc4)sc3c2=O)ccc1OCC(C)(C)O [Example 9, 2-(4-Chlorophenyl)-6-(4-(2-hydroxy-2-methylpropoxy)-3-methoxyphenyl)-thieno[2,3-d]pyridazin-7(6H)-one] |
